Assays:
Assay in all cases: relative viability (nuclei count vs DMSO), 5 days (fraction); higher = more cells survive
VX-11e + Pemetrexed = compound: CC1=CN=C(N=C1C2=CNC(=C2)C(=O)N[C@H](CO)C3=CC(=CC=C3)Cl)NC4=C(C=C(C=C4)F)Cl [VX-11e] + Nc1nc2[nH]cc(CCc3ccc(C(=O)N[C@@H](CCC(=O)O)C(=O)O)cc3)c2c(=O)[nH]1 [Pemetrexed] (partner 0.2 µM)
How it was run: (§1)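 Lung cancer cell lines, seeded in 1536-well plates, were treated the following day by pin tool with a single drug or with five library-drug doses (not always all listed) in √10 steps on top of a fixed anchor-drug dose. Cells were fixed and nuclei stained in one step after 5 days, and nuclei were counted. Relative viability is the nuclei count for treated wells divided by that for vehicle wells, reported as medians of duplicate plates.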

VX-11e + Vorinostat = compound: CC1=CN=C(N=C1C2=CNC(=C2)C(=O)N[C@H](CO)C3=CC(=CC=C3)Cl)NC4=C(C=C(C=C4)F)Cl [VX-11e] + O=C(CCCCCCC(=O)Nc1ccccc1)NO [Vorinostat] (partner 1 µM)
How it was run: as §1

VX-11e + Navitoclax = compound: CC1=CN=C(N=C1C2=CNC(=C2)C(=O)N[C@H](CO)C3=CC(=CC=C3)Cl)NC4=C(C=C(C=C4)F)Cl [VX-11e] + CC1(C)CCC(c2ccc(Cl)cc2)=C(CN2CCN(c3ccc(C(=O)NS(=O)(=O)c4ccc(N[C@H](CCN5CCOCC5)CSc5ccccc5)c(S(=O)(=O)C(F)(F)F)c4)cc3)CC2)C1 [Navitoclax] (partner 0.5 µM)
How it was run: as §1

VX-11e + Linsitinib = compound: CC1=CN=C(N=C1C2=CNC(=C2)C(=O)N[C@H](CO)C3=CC(=CC=C3)Cl)NC4=C(C=C(C=C4)F)Cl [VX-11e] + C[C@]1(O)C[C@@H](c2nc(-c3ccc4ccc(-c5ccccc5)nc4c3)c3c(N)nccn32)C1 [Linsitinib] (partner 1 µM)
How it was run: as §1

Cell Line	relative viability (VX-11e + Pemetrexed; first compound 0.04 µM)	relative viability (VX-11e + Pemetrexed; first compound 0.1265 µM)	relative viability (VX-11e + Pemetrexed; first compound 1.265 µM)	relative viability (VX-11e + Pemetrexed; first compound 4 µM)	relative viability (VX-11e + Vorinostat; first compound 0.04 µM)	relative viability (VX-11e + Vorinostat; first compound 0.1265 µM)	relative viability (VX-11e + Vorinostat; first compound 1.265 µM)	relative viability (VX-11e + Vorinostat; first compound 4 µM)	relative viability (VX-11e + Navitoclax; first compound 0.04 µM)	relative viability (VX-11e + Navitoclax; first compound 0.1265 µM)	relative viability (VX-11e + Navitoclax; first compound 1.265 µM)	relative viability (VX-11e + Navitoclax; first compound 4 µM)	relative viability (VX-11e + Linsitinib; first compound 0.04 µM)	relative viability (VX-11e + Linsitinib; first compound 0.1265 µM)	relative viability (VX-11e + Linsitinib; first compound 1.265 µM)	relative viability (VX-11e + Linsitinib; first compound 4 µM)	relative viability (VX-11e + Pemetrexed; first compound 0.4 µM)	relative viability (VX-11e + Vorinostat; first compound 0.4 µM)	relative viability (VX-11e + Navitoclax; first compound 0.4 µM)	relative viability (VX-11e + Linsitinib; first compound 0.4 µM)
HCC-366	0.246	0.178	0.15	0.138	0.314	0.332	0.105	0.199	1.22	1.02	0.993	0.708	0.774	0.602	0.348	0.0744				
HCC-827	0.254	0.226	0.271	0.252	0.924	0.846	0.918	0.761	1.07	1.02	1.24	0.919	0.967	0.934	1.12	0.859	0.241	1.03	0.992	0.975
HOP-62	0.348	0.264	0.192	0.22	0.519	0.59	0.201	0.158	0.992	0.891	0.46	0.582	0.903	0.773	0.831	0.226	0.277	0.345	1.02	0.973
IA-LM					1.07	0.814	0.668	0.302	0.899	0.891	0.415	0.0436	0.694	0.516	0.132	0.142		0.941	0.844	0.469
LC-2-ad	0.277	0.247	0.239	0.243	0.84	0.695	0.456	0.376	0.463	0.375	0.372	0.248	0.831	0.852	0.572	0.508	0.285	0.733	0.362	0.787
LCLC-97TM1	0.183	0.14		0.171	0.765	0.718		0.149	0.492	0.463	0.408	0.157	0.158	0.172	0.203	0.116	0.243	0.758		
LCLC-103H	0.442	0.437	0.417	0.493	0.807	0.68	0.46	0.66					1.24	0.985	0.857	0.836	0.53	0.673		0.954
LK-2	0.171	0.269	0.183	0.16	0.223	0.323	0.297	0.227	0.893	0.732	0.738	0.86	0.774	0.672	0.205	0.313	0.145	0.268	0.781	0.555
NCI-H358	0.188	0.171	0.171	0.136	0.725	0.63	0.54	0.135					0.738	0.52	0.558	0.277	0.17	0.513		
NCI-H522	0.861	0.936	0.76	0.59	0.994	0.939	0.713	0.751									0.962	0.736		
NCI-H650	0.997	0.903	1.05	1.11	0.33	0.435	0.608	0.533						0.79		0.88	0.984	0.63		0.957
NCI-H661	0.814	0.912	0.88	0.756	0.784	0.798	0.794	0.747					0.598	0.617	0.501	0.394	0.901	0.718		0.568
NCI-H727					0.997	1.08	1.12	0.787	0.395	0.332	0.167	0.115	0.314	0.252	0.274	0.184		1.28	0.283	0.215
NCI-H1299									1.02	1.01	0.976	0.692	1.08	0.944	0.682	0.36			1.02	0.942
NCI-H1563	0.766	0.798	0.631	0.655									1.21	1.2	1.11	1.06	0.915			1.22
NCI-H1648		0.891	0.596	0.674		0.317	0.31	0.291									0.866	0.639		
NCI-H1650	0.323	0.335	0.377	0.305	0.561	0.549	0.529	0.458	1.21	1.07	0.856	0.374					0.334	0.409	1.08	
NCI-H1703									1.12	1.21	1.29	0.744	0.294	0.655	0.748	0.502			1.24	
NCI-H1792		0.719	0.343	0.0593					0.614	0.639	0.646	0.588	0.706	0.488	0.484	0.137			0.672	0.681
NCI-H2170	0.222	0.254	0.247	0.254	0.835	0.75	0.67	0.778	0.576	0.528	0.583	0.404					0.232	0.462	0.496	
NCI-H2342		0.83	0.798	0.737		0.79	0.843	0.73									0.757	0.862		
SW 900	0.49	0.452	0.36	0.294	0.348	0.507	0.276	0.323												
